# Results reported in the supplement of paper PMC10307832.
# Tests used:
# Assay in all cases: relative viability (nuclei count vs DMSO), 5 days (fraction); higher = more cells survive
# Tosedostat + Tozasertib = compound: CC(C)C[C@@H](C(=O)N[C@H](C(=O)OC1CCCC1)c1ccccc1)[C@H](O)C(=O)NO [Tosedostat] + Cc1cc(Nc2cc(N3CCN(C)CC3)nc(Sc3ccc(NC(=O)C4CC4)cc3)n2)n[nH]1 [Tozasertib] (partner 0.1 µM)
# Summary of the method: (§1)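 Each reported value is a median over duplicate plates. It expresses relative viability: treated-well nuclei count divided by vehicle-well nuclei count. Lung cancer cell lines in 1536-well plates were dosed by pin tool a day after seeding, alone with one drug or with a fixed anchor-drug dose plus five library-drug doses (not always all listed) in √10 steps, and nuclei were counted after 5 days.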
# [1] = compound: CC1=NN=C(O1)C2=NN=C(C=C2)N3CCC(CC3)OC4=C(C=CC(=C4)F)Cl + C[C@]1(O)C[C@@H](c2nc(-c3ccc4ccc(-c5ccccc5)nc4c3)c3c(N)nccn32)C1 [Linsitinib] (partner 1 µM)
# Summary of the method: as §1
# [2] = compound: CC1=NN=C(O1)C2=NN=C(C=C2)N3CCC(CC3)OC4=C(C=CC(=C4)F)Cl + COc1cc2c(Oc3ccc(NC(=O)C4(C(=O)Nc5ccc(F)cc5)CC4)cc3F)ccnc2cc1OCCCN1CCOCC1 [Foretinib] (partner 0.25 µM)
# Summary of the method: as §1
# [3] = compound: CC1=NN=C(O1)C2=NN=C(C=C2)N3CCC(CC3)OC4=C(C=CC(=C4)F)Cl + CC(C)C[C@H](NC(=O)[C@H](Cc1ccccc1)NC(=O)c1cnccn1)B(O)O [Bortezomib] (partner 0.002 µM)
# Summary of the method: as §1
Cell Line,relative viability (Tosedostat + Tozasertib; first compound 0.02 µM),relative viability (Tosedostat + Tozasertib; first compound 0.06325 µM),relative viability (Tosedostat + Tozasertib; first compound 0.2 µM),relative viability (Tosedostat + Tozasertib; first compound 0.6325 µM),relative viability (Tosedostat + Tozasertib; first compound 2 µM),relative viability ([1]; first compound 0.253 µM),relative viability ([1]; first compound 0.8 µM),relative viability ([1]; first compound 2.53 µM),relative viability ([1]; first compound 8 µM),relative viability ([2]; first compound 0.253 µM),relative viability ([2]; first compound 0.8 µM),relative viability ([2]; first compound 2.53 µM),relative viability ([2]; first compound 8 µM),relative viability ([3]; first compound 0.253 µM),relative viability ([3]; first compound 0.8 µM),relative viability ([3]; first compound 2.53 µM),relative viability ([3]; first compound 8 µM)
NCI-H322M,0.461,0.468,0.434,0.419,0.341,0.853,0.836,0.896,0.786,0.937,0.908,1.03,0.95,1.05,1.05,1.21,1.11
NCI-H441,0.911,0.567,0.561,0.542,0.423,0.571,0.419,0.473,0.396,0.658,0.78,0.686,0.605,0.294,0.362,0.305,0.234
NCI-H460,0.313,0.502,0.687,0.325,0.264,0.331,0.3,0.398,0.342,0.282,0.299,0.273,0.243,0.382,0.358,0.342,0.315
NCI-H520,0.448,0.478,0.438,0.399,0.542,0.929,0.793,0.93,0.755,0.653,–,0.757,0.77,0.378,0.5,0.518,0.542
NCI-H596,0.893,0.875,0.791,0.934,0.729,–,0.953,1.01,0.933,0.71,0.751,0.837,0.682,–,0.85,1.01,0.713
NCI-H647,0.37,0.262,0.339,0.175,0.367,0.759,0.805,0.616,0.582,0.565,0.623,0.586,0.426,0.539,0.742,0.786,0.606
NCI-H650,0.839,0.78,0.684,0.602,0.471,0.981,0.766,0.773,0.786,1.01,0.959,0.911,1.06,0.787,0.546,0.716,0.555
NCI-H661,0.354,0.353,0.374,0.395,0.342,0.566,0.531,0.62,0.469,0.912,0.845,0.837,0.731,0.695,0.539,0.801,0.669
NCI-H727,0.586,0.535,–,0.45,0.415,0.189,0.251,0.327,0.251,0.786,0.822,0.838,0.828,0.528,0.702,1,0.696
NCI-H838,0.273,0.262,0.305,0.283,0.255,0.919,0.872,0.93,0.856,0.887,0.83,0.868,0.88,0.697,0.592,0.553,0.645
NCI-H1355,0.63,0.55,0.584,0.533,0.442,–,–,0.806,0.66,0.723,0.802,0.895,0.845,–,–,1.1,0.945
NCI-H1437,0.403,0.395,0.389,0.337,0.166,0.552,0.644,0.689,0.487,0.724,0.805,0.729,0.512,0.31,0.342,0.424,0.342
NCI-H1651,0.726,0.645,0.637,0.678,0.554,0.857,0.873,0.807,0.801,0.819,0.619,0.689,0.848,0.782,0.708,0.649,0.686
NCI-H1666,0.639,0.711,0.541,0.726,0.623,0.589,0.725,0.791,0.656,0.496,0.47,0.459,0.412,0.419,0.851,0.756,0.57
NCI-H1734,0.24,0.242,0.278,0.229,0.208,0.863,0.783,0.814,0.601,0.861,0.857,0.769,0.699,0.65,0.592,0.824,0.805
NCI-H1755,0.665,0.578,0.477,0.386,0.319,0.661,0.754,0.728,0.683,0.641,0.719,0.731,0.647,0.493,0.625,0.73,0.628
NCI-H1915,0.473,0.432,0.492,0.352,0.289,0.582,0.51,0.45,0.376,0.685,0.532,0.531,0.402,0.4,0.31,0.456,0.323

Cell Line,relative viability (Tosedostat + Tozasertib; first compound 0.02 µM),relative viability (Tosedostat + Tozasertib; first compound 0.06325 µM),relative viability (Tosedostat + Tozasertib; first compound 0.2 µM),relative viability (Tosedostat + Tozasertib; first compound 0.6325 µM),relative viability (Tosedostat + Tozasertib; first compound 2 µM),relative viability ([1]; first compound 0.253 µM),relative viability ([1]; first compound 0.8 µM),relative viability ([1]; first compound 2.53 µM),relative viability ([1]; first compound 8 µM),relative viability ([2]; first compound 0.253 µM),relative viability ([2]; first compound 0.8 µM),relative viability ([2]; first compound 2.53 µM),relative viability ([2]; first compound 8 µM),relative viability ([3]; first compound 0.253 µM),relative viability ([3]; first compound 0.8 µM),relative viability ([3]; first compound 2.53 µM),relative viability ([3]; first compound 8 µM)
NCI-H1975,0.955,0.749,0.916,0.575,0.471,–,0.941,0.815,0.868,–,0.929,0.834,0.757,–,0.367,0.299,0.306
NCI-H1993,0.631,0.535,0.56,0.588,0.493,0.679,0.745,0.647,0.693,0.664,0.682,0.709,0.7,0.922,0.901,0.925,0.966
NCI-H2009,0.821,0.765,0.697,0.647,0.607,0.684,0.636,0.623,0.589,0.711,0.667,0.644,0.636,0.555,0.426,0.523,0.493
NCI-H2023,0.378,0.319,0.35,0.291,0.169,0.478,0.433,0.557,0.393,0.594,0.613,0.64,0.619,0.49,0.415,0.505,0.386
NCI-H2085,0.695,0.695,0.784,0.909,0.838,0.743,0.793,0.792,0.65,0.808,–,0.744,0.698,0.745,0.813,1.03,0.761
NCI-H2087,0.301,0.284,0.277,0.108,0.081,0.646,0.659,0.621,0.53,0.593,0.641,0.626,0.489,0.45,0.437,0.489,0.512
NCI-H2126,0.829,0.853,0.852,0.789,0.618,0.67,0.64,0.753,0.505,0.982,0.932,0.958,0.985,0.965,0.907,0.842,0.837
NCI-H2228,0.375,0.286,0.216,0.101,0.0875,0.673,0.808,0.481,0.547,0.723,0.66,0.845,0.632,0.725,0.804,1.27,0.772
NCI-H2347,0.519,0.509,0.504,0.435,0.41,0.636,0.69,0.766,0.658,0.904,0.931,0.707,0.824,0.611,0.8,0.898,0.799
NCI-H2405,0.764,0.737,0.76,0.667,0.612,0.859,0.784,0.851,0.731,0.582,0.564,0.546,0.555,0.468,0.415,0.47,0.453
NCI-H3122,0.413,0.4,0.393,0.388,0.306,0.729,0.551,0.749,0.517,0.431,0.409,0.438,0.397,0.662,0.707,0.71,0.566
PC-3 [JPC-3],0.892,0.954,0.87,0.802,0.571,0.789,0.869,0.869,0.844,0.774,0.923,0.874,0.855,0.519,0.614,0.726,0.666
PC-14,0.586,0.562,0.52,0.51,0.399,0.783,0.732,0.777,0.739,0.806,0.779,0.768,0.759,0.782,0.655,0.681,0.741
RERF-LC-KJ,0.553,0.462,0.403,0.304,0.293,0.523,0.568,0.6,0.632,0.617,0.533,0.544,0.519,0.776,0.9,0.929,0.969
SK-LU-1,0.356,0.282,0.275,0.285,0.225,1.03,0.852,1.02,0.589,0.698,–,0.696,0.557,1.08,0.86,1.12,1.02
SW 1573,0.183,0.193,0.205,0.219,0.157,0.805,0.727,0.74,0.673,0.99,0.86,0.909,0.569,0.865,0.834,1.01,1.15
UMC-11,0.214,0.195,0.206,0.197,0.194,0.758,0.732,0.714,0.744,0.539,0.57,0.543,0.501,0.66,0.533,0.636,0.575
